Data: paper PMC8228234, “Identifying a Novel Bile Salt Hydrolase from the Keystone Gut Bacterium Christensenella minuta” (Microorganisms, 2021)

Target: T1, Cm33407BSH (Christensenella minuta, UniProt A0A8F5DVT9)
T1 construct: gene BSH
Assay: ninhydrin assay of released amino acid
Format: biochemical
Details: citrate buffer pH 6.0, 37 °C, 10 mM DTT, 5 mM substrate

T1 sequence (A0A8F5DVT9 entry or part of it): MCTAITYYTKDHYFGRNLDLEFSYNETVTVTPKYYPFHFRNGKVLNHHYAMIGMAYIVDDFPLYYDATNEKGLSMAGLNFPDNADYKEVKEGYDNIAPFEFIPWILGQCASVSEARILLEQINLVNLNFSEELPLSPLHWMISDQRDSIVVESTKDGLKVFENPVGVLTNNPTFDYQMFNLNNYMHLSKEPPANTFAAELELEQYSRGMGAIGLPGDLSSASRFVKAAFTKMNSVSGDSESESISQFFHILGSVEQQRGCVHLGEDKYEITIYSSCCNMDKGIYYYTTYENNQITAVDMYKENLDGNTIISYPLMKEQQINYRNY

SMILES | specific activity
C[C@H](CCC(=O)NCC(=O)O)[C@H]1CC[C@H]2[C@@H]3[C@H](O)C[C@@H]4C[C@H](O)CC[C@]4(C)[C@H]3C[C@H](O)[C@]12C [GCA] | displayed high specific activity values for the glycine conjugates GCA and GCDCA
C[C@H](CCC(=O)NCC(=O)O)[C@H]1CC[C@H]2[C@@H]3[C@H](O)C[C@@H]4C[C@H](O)CC[C@]4(C)[C@H]3CC[C@]12C [GCDCA] | displayed high specific activity values for the glycine conjugates GCA and GCDCA
